Measurements published in patent publication US9670194B2 (Calitor Sciences, LLC, priority 2013, dated 2017).

Legend:
[1] = tested on: mouse model of rheumatoid arthritis; details: Nature Medicine, 2005, 11, 936-943; cited from earlier work
[2] = tested on: model of systemic lupus erythematosis; details: Nature Medicine, 2005, 11, 933-935; cited from earlier work
[3] = Pharmacokinetics after intravenous and oral administration in mice; assay type: in vivo; details: Mouse; for CL/F / AUC(0-t) / half-life / Vd: iv dosing, dose 1 mg/kg; for bioavailability / AUC(0-t) / half-life / Vd: plasma; for bioavailability: iv dose 1 mg/kg, oral dose generally 5 or 10 mg/kg; for Vd: read-out: Vss
[4] = Compound stability in human liver microsomes; assay type: in vitro ADME; details: for half-life at 5 μM: human liver microsomes 0.5 mg protein/mL, compound 5 μM, NADPH 1.0 mM, 37° C.; for CLint scaled at 5 μM: human liver microsomes, in vivo CLint extrapolated
[5] = biological target: PI3K (p120γ) (h) (Homo sapiens (Human), UniProt P48736); experiment: PI3K (p120γ) (h) non-radioactive HTRF kinase assay; assay type: biochemical
[6] = Pharmacokinetics after intravenous and oral administration in rats; assay type: in vivo, rat; details: for clearance (CL) / AUC(0-t) / half-life / Vd: iv dosing, dose 1 mg/kg; for bioavailability / AUC(0-t) / half-life / Vd: rat, plasma; for bioavailability: iv dose 1 mg/kg, oral dose generally 5 or 10 mg/kg; for Vd: read-out: Vss
[7] = Pharmacokinetics after intravenous and oral administration in monkeys; assay type: in vivo; details: Monkey; for CL/F / AUC(0-t) / half-life / Vd: iv dosing, dose 1 mg/kg; for bioavailability / AUC(0-t) / half-life / Vd: plasma; for bioavailability: iv dose 1 mg/kg, oral dose generally 10 mg/kg; for Vd: read-out: Vss
[8] = Compound stability in rat liver microsomes; assay type: in vitro ADME; details: pH 7.4; for half-life at 5 μM: rat liver microsomes 0.5 mg protein/mL, compound 5 μM, NADPH 1.0 mM, 37° C.; for CLint scaled at 5 μM: rat liver microsomes, in vivo CLint extrapolated
[9] = biological target: PI3K (p110δ/p85α) (h) (Homo sapiens (Human), UniProt O00329); experiment: PI3K (p110δ/p85α) (h) non-radioactive HTRF kinase assay; assay type: biochemical
[10] = biological target: PI3K (p110β/p85α) (h) (Homo sapiens (Human), UniProt P42338); experiment: PI3K (p110β/p85α) (h) non-radioactive HTRF kinase assay; assay type: biochemical
[11] = Pharmacokinetics after intravenous and oral administration in dogs; assay type: in vivo; details: Dog; for CL/F / AUC(0-t) / half-life / Vd: iv dosing, dose 1 mg/kg; for bioavailability / AUC(0-t) / half-life / Vd: plasma; for bioavailability: iv dose 1 mg/kg, oral dose generally 10 mg/kg; for Vd: read-out: Vss
[12] = biological target: PI3K (p110α/p85α) (h) (Homo sapiens (Human), UniProt P42336); experiment: PI3K (p110α/p85α) (h) non-radioactive HTRF kinase assay; assay type: biochemical
[13] = tested on: murine model of asthma; details: ovalbumin-induced airway inflammation; FASEB, 2006, 20: 455-465; cited from earlier work
[14] = biological target: PI3Kδ (Homo sapiens, UniProt O00329); details: Cell, 2006, 125, 733-747; cited from earlier work

PI3K (p110α/p85α) (h), sequence (P42336 whole entry): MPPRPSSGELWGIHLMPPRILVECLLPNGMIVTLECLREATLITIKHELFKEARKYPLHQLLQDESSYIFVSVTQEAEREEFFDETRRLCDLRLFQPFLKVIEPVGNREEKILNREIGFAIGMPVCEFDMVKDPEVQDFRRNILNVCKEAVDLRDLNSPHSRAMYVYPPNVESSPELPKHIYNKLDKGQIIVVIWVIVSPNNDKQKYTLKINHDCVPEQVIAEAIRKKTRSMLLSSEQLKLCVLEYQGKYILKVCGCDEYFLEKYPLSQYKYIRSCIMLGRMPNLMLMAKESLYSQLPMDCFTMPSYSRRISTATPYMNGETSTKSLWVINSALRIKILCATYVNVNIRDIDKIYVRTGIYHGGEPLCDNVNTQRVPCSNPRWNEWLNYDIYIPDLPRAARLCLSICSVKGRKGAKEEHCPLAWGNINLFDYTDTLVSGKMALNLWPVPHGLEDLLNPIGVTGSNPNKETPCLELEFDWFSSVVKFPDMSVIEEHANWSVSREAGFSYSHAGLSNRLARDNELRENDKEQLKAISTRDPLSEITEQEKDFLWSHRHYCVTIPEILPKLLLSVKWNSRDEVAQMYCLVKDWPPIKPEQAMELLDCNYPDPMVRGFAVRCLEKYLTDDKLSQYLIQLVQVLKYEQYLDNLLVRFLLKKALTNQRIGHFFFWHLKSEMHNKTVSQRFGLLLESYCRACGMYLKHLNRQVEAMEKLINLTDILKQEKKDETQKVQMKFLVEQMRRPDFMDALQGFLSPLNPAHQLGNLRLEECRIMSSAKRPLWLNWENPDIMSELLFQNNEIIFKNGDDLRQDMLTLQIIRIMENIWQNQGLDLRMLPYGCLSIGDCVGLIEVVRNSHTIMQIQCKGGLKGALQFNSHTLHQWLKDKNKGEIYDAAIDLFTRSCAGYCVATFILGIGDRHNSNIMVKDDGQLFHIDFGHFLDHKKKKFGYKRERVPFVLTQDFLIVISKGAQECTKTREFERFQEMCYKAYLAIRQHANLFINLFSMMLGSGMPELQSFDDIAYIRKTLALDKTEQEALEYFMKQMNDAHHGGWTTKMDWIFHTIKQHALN
PI3K (p110α/p85α) (h), sequence (P27986 whole entry partner): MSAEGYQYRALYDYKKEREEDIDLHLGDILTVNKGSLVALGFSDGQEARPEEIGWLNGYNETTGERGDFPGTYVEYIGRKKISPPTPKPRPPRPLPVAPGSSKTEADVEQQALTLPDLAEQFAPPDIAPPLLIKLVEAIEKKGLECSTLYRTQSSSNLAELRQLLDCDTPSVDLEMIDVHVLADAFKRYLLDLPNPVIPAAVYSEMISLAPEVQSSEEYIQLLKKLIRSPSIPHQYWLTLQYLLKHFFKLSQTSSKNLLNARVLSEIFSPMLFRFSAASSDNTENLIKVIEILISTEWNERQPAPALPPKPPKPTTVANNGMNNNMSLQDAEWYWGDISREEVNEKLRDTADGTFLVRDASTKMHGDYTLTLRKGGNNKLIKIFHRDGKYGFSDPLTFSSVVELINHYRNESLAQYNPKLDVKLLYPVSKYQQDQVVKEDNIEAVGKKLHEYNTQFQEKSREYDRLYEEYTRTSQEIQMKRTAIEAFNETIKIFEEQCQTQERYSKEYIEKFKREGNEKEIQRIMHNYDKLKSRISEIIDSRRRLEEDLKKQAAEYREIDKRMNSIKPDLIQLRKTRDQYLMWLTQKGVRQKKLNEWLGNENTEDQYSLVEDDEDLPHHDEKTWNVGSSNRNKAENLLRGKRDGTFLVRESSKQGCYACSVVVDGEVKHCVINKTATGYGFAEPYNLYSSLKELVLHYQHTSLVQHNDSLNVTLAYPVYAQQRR
PI3K (p120γ) (h), sequence (P48736 whole entry): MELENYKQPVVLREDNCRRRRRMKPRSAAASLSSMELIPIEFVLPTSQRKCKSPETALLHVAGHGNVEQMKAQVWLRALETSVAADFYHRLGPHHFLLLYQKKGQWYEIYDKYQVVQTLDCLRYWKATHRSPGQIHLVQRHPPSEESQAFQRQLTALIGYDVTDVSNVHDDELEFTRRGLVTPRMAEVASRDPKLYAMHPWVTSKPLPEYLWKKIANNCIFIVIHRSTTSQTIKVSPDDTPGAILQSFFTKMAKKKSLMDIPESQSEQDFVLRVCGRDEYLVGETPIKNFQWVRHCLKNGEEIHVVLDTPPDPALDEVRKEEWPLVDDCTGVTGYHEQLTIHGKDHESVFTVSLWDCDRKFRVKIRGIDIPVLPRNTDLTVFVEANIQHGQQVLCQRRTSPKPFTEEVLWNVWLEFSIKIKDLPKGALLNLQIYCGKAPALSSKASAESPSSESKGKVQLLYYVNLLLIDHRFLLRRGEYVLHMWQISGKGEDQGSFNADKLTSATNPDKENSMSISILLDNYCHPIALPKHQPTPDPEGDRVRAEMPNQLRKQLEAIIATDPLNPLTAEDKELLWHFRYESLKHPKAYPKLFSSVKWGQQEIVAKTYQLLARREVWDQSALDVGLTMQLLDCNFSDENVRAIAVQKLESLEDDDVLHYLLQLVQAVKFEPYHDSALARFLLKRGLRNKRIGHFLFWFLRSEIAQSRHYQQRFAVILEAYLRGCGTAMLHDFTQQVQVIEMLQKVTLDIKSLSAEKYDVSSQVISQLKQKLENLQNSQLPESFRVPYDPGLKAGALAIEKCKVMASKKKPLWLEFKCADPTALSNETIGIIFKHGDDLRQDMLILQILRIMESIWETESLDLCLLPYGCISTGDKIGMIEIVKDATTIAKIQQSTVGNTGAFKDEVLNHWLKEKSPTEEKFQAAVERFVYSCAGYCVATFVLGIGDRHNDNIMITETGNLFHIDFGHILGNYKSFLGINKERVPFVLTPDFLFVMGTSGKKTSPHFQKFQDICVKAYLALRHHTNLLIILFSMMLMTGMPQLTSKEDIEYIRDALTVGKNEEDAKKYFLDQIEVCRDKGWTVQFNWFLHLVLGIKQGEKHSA
PI3K (p110β/p85α) (h), sequence (P42338 whole entry): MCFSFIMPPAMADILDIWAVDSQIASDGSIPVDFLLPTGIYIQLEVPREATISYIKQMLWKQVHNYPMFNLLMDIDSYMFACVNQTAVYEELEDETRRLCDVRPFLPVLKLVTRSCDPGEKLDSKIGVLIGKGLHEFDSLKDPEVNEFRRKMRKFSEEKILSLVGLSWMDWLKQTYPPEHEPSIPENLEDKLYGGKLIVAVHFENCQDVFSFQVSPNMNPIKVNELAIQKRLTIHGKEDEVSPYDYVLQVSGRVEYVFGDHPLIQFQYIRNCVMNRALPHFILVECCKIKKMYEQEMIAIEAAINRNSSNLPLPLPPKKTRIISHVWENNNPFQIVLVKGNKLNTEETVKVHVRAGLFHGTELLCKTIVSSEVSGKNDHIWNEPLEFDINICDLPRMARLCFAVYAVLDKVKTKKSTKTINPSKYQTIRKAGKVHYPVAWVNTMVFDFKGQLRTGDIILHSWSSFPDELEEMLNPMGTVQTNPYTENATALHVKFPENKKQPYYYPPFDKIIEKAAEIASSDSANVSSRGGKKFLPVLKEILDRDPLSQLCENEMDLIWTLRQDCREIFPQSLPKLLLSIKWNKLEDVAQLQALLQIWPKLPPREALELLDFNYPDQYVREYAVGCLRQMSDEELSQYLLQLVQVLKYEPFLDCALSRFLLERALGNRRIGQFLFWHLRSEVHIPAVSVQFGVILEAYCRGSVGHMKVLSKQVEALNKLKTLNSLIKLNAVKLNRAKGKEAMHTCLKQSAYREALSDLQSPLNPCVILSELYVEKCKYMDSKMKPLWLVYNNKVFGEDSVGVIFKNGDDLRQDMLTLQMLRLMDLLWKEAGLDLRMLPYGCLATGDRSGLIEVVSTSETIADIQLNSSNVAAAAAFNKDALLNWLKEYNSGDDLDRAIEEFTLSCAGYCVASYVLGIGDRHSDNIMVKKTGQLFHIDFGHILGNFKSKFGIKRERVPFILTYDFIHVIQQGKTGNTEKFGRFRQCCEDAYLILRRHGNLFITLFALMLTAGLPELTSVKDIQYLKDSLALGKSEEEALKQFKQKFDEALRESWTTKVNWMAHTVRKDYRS
PI3K (p110β/p85α) (h), sequence (P27986 whole entry partner): as the sequence (P27986 whole entry partner) above
PI3K (p110δ/p85α) (h), sequence (O00329 whole entry): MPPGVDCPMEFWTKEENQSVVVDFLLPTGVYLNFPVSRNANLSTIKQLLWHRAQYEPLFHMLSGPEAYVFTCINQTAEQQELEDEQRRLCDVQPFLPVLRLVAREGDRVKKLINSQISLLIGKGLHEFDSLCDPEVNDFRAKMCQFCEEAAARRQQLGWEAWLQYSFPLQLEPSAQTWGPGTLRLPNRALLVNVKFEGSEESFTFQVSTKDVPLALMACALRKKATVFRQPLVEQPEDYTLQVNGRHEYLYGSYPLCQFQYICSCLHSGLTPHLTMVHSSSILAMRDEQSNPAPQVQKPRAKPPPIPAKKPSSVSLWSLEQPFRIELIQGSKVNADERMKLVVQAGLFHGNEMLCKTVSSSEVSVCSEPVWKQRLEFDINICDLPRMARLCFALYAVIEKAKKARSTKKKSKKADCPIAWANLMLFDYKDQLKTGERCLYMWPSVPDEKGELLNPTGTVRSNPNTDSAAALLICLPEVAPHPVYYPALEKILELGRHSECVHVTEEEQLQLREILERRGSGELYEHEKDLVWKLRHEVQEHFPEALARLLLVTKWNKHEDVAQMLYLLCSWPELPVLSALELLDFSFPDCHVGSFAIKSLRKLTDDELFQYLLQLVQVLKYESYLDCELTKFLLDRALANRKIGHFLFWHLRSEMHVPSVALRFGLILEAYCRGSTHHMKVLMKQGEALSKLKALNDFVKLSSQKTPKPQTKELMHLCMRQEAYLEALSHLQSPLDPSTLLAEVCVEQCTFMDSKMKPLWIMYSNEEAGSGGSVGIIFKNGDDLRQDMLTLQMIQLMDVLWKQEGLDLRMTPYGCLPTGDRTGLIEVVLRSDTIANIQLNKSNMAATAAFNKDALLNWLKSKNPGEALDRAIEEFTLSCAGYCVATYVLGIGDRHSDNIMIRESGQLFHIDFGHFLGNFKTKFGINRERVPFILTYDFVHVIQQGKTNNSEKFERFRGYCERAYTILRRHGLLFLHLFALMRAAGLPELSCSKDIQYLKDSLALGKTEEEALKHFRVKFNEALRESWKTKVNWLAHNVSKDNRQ
PI3K (p110δ/p85α) (h), sequence (P27986 whole entry partner): as the sequence (P27986 whole entry partner) above

Row | Structure (SMILES) | CL/F [3] | bioavailability [3] | AUC(0-t) [3] | half-life [3] | Vd [3] | half-life at 5 μM [4] | CLint scaled at 5 μM [4] | IC50 [5] | clearance (CL) [6] | bioavailability [6] | AUC(0-t) [6] | half-life [6] | Vd [6] | CL/F [7] | bioavailability [7] | AUC(0-t) [7] | half-life [7] | Vd [7] | half-life at 5 μM [8] | CLint scaled at 5 μM [8] | further results
1 | O=C1NC(=O)/C(=C\c2ccc3nccnc3c2)S1 [AS 605240] | – | – | – | – | – | – | – | – | – | – | – | – | – | – | – | – | – | – | – | – | efficacy in a mouse model of rheumatoid arthritis [1]: efficacious; onset of disease in a model of systemic lupus erythematosis [2]: delay onset of disease
2 | CC[C@H](Nc1ncnc(N)c1-c1nc(C)no1)c1nc2cccc(Cl)c2c(=O)n1C1CC1 [Ex. 4, (S)-2-(1-((6-amino-5-(3-methyl-1,2,4-oxadiazol-5-yl)pyrimidin-4-yl)amino)-propyl)-5-chloro-3-cyclopropylquinazolin-4(3H)-one] | 255 mL/min/kg | 11% | 651 ng·h/mL | 1.48 h | 3.8 L/kg | 0.759 h | 38.2 mL/min/kg | 258 nM | 21.5 mL/min/kg | 76.1% | 726 ng·h/mL | 5.98 h | 10.7 L/kg | 11.6 mL/min/kg | 55.4% | 1520 ng·h/mL | 3.09 h | 1.92 L/kg | 1.35 h | 30.6 mL/min/kg | IC50 [9]: 8 nM; IC50 [10]: 113 nM; CL/F [11]: 9.67 mL/min/kg; bioavailability [11]: 34.1%; AUC(0-t) [11]: 1580 ng·h/mL; half-life [11]: 11.4 h; Vd [11]: 6.01 L/kg; IC50 [12]: 1480 nM
3 | Cc1nnc(-c2c(N)ncnc2N[C@@H](C)c2nc3cccc(Cl)c3c(=O)n2-c2ccccc2)o1 [Ex. 64, (S)-2-(1-((6-amino-5-(5-methyl-1,3,4-oxadiazol-2-yl)pyrimidin-4-yl)amino)ethyl)-5-chloro-3-phenylquinazolin-4(3H)-one] | 18.8 mL/min/kg | 78.7% | 883 ng·h/mL | 0.56 h | 0.41 L/kg | 0.93 h | 31.1 mL/min/kg | 112 nM | 28.3 mL/min/kg | 111% | 596 ng·h/mL | 0.777 h | 1.69 L/kg | 7.17 mL/min/kg | 134% | 2340 ng·h/mL | 3.49 h | 1.4 L/kg | 0.827 h | 50.1 mL/min/kg | IC50 [9]: 8 nM; IC50 [10]: 674 nM; CL/F [11]: 1.83 mL/min/kg; bioavailability [11]: 76.3%; AUC(0-t) [11]: 10000 ng·h/mL; half-life [11]: 3.63 h; Vd [11]: 0.48 L/kg; IC50 [12]: > 3000 nM
4 | Cc1noc(-c2c(N)ncnc2N[C@@H](C)c2nc3cccc(Cl)c3c(=O)n2-c2ccccc2)n1 [Ex. 65, (S)-2-(1-((6-amino-5-(3-methyl-1,2,4-oxadiazol-5-yl)pyrimidin-4-yl)amino)ethyl)-5-chloro-3-phenylquinazolin-4(3H)-one] | 31.7 mL/min/kg | 33.3% | 527 ng·h/mL | 0.79 h | 0.84 L/kg | 0.552 h | 52.5 mL/min/kg | 37 nM | 129 mL/min/kg | 88.7% | 260 ng·h/mL | 0.904 h | 9.09 L/kg | 15.3 mL/min/kg | 10% | 1060 ng·h/mL | 6.71 h | 4.2 L/kg | 0.544 h | 76.1 mL/min/kg | IC50 [9]: 2 nM; IC50 [10]: 154 nM; CL/F [11]: 6.17 mL/min/kg; bioavailability [11]: 24.8%; AUC(0-t) [11]: 2690 ng·h/mL; half-life [11]: 10.6 h; Vd [11]: 4.25 L/kg; IC50 [12]: 1010 nM
5 | Cc1ccccc1-n1c(Cn2cnc3c(N)ncnc32)nc2cccc(C)c2c1=O [IC87114] | – | – | – | – | – | – | – | – | – | – | – | – | – | – | – | – | – | – | – | – | inflammation and disease in a murine model of asthma [13]: significantly ameliorate inflammation and disease; inhibits PI3Kδ [14]: high nanomolar range (triple digit)
